Results taken from PMC4503722, “Novel Phenotypic Outcomes Identified for a Public Collection of Approved Drugs from a Publicly Accessible Panel of Assays” (PLoS ONE, 2015).
Where a name gives a salt, the structure may show the parent alone. Read-outs that look alike come from different tables or passages of the source. Where a SMILES comes first, the peptide text is derived from it. [ ]: non-standard residue; d: D form. The star is where a group is joined. Sta = CC(C)C[C@H](N)[C@@H](O)CC(=O)O; Isovaleryl = CC(C)CC(=O)*

What was measured:
Assay in all cases: cells
[1] = tested on: endothelial tube formation in co-cultures of ECFCs and ADSCs treated with VEGF; assay type: cell-based, human
[2] = tested on: nuclear β-catenin in C2C12 cells; assay type: cell-based
INS-1E cells = assay type: cell-based, rat
NCI-H716 cells = assay type: cell-based, Human
HeLa cells = assay type: cell-based; details: for EC50: Homo sapiens, HeLa, read-out: CellCycle G2/M
DLD-1 = assay type: cell-based; details: Homo sapiens
SW480 = assay type: cell-based; details: Homo sapiens
HCT116 = assay type: cell-based; details: Homo sapiens
[3] = tested on: HCT116 cells treated with a GSK3β inhibitor; assay type: cell-based; details: Homo sapiens
[4] = Homo sapiens, IC50 / EC50; endothelial tube area, ADSC/ECFC co-culture; read-out: Anti-Angiogenesis
[5] = Mus musculus, C2C12, IC50 / EC50; C2C12 beta-catenin translocation; read-out: Wnt Pathway
[6] = Rattus norvegicus; IC50 / EC50; INS-1E; read-out: Insulin Secretion
[7] = Homo sapiens; IC50 / EC50; NCI-H716; read-out: GLP 1 Secretion
[8] = DLD-1, basal, read-out: Basal_Viability ATP DLD-1
[9] = SW480, basal, read-out: Basal_Viability ATP SW480
[10] = HCT-116, basal, read-out: Basal_Viability ATP HCT116
[11] = HCT-116, GSK3b inhibitor pretreated, read-out: GSK3b inh pretreated_Viability ATP HCT116
[12] = HCT-116, read-out: GSK3b inh pretreated_Viability ATP HCT116
[13] = Homo sapiens; read-out: Anti-Angiogenesis
[14] = Mus musculus, C2C12, S2 Table; module primary assay; 20 / 20.1 codes per legend; read-out: Wnt Pathway
[15] = Rattus norvegicus, INS-1E; read-out: Insulin Secretion
[16] = Homo sapiens, NCI-H716; read-out: GLP 1 Secretion
[17] = S2 Table, 20 = no response at highest concentration
[18] = DLD-1, basal, DLD-1, read-out: Basal_Viability ATP DLD-1
[19] = SW480, basal, SW480, read-out: Basal_Viability ATP SW480
[20] = HCT-116, basal, HCT116, read-out: Basal_Viability ATP HCT116
[21] = HCT-116, HCT116 pretreated with GSK3b inhibitor, read-out: GSK3b inh pretreated_Viability ATP HCT116
[22] = Rattus norvegicus, INS-1E; read-out: Ins. sec. EC50
[23] = Homo sapiens, NCI-H716; read-out: GLP1 sec. EC50
[24] = DLD-1, 72 h, Table 2, 72 h, Cell TiterGlo, non-adherent, 20 coded, read-out: DLD-1 viab. IC50
[25] = SW480, 72 h, Table 2, 72 h, Cell TiterGlo, non-adherent, 20 coded, read-out: SW480 viab. IC50
[26] = HCT-116, 72 h, read-out: HCT-116 viab. IC50, Table 2, basal, 72 h, Cell TiterGlo, non-adherent, 20 coded
[27] = HCT-116, read-out: HCT-116 (GSK3β) viab. IC50, Table 2, GSK3β inhibitor LY2090314 20 nM, 72 h, Cell TiterGlo, 20 coded

O=c1[nH]c(=O)n([C@H]2C[C@H](O)[C@@H](CO)O2)cc1Br [Broxuridine]
IC50 [1, 4]: 3.85 µM
EC50 [2, 5]: > 10 µM
EC50 (INS-1E cells; [6]): > 10 µM
EC50 (NCI-H716 cells; [7]): > 10 µM
EC50 (HeLa cells; IC50 / EC50): > 10 µM
IC50 (DLD-1; [8]): > 20 µM
IC50 (SW480; [9]): > 20 µM
IC50 (HCT116; [10]): > 20 µM
IC50 [3, 11]: > 20 µM

C=CC(=O)Nc1cc2c(Nc3ccc(F)c(Cl)c3)ncnc2cc1OCCCN1CCOCC1 [Canertinib]
IC50 ([1]; Homo sapiens, read-out: Anti-Angiogenesis): > 10 µM
EC50 ([2]; Mus musculus, C2C12, read-out: Wnt Pathway): 1 µM
EC50 (INS-1E cells; Rattus norvegicus, INS-1E, read-out: Insulin Secretion): > 10 µM
EC50 (NCI-H716 cells; Homo sapiens, NCI-H716, read-out: GLP 1 Secretion): > 10 µM
EC50 (HeLa cells): > 10 µM
IC50 (DLD-1; DLD-1, read-out: Basal_Viability ATP DLD-1): 0.841 µM
IC50 (SW480; SW480, read-out: Basal_Viability ATP SW480): 1.21 µM
IC50 (HCT116; HCT-116, read-out: Basal_Viability ATP HCT116): 3.71 µM
IC50 [3, 12]: 3.51 µM

CCCCCCCCCCCCCCCC[N+](C)(C)Cc1ccccc1 [Cetalkonium chloride]
IC50 [1, 4]: 2.53 µM
EC50 [2, 5]: > 10 µM
EC50 (INS-1E cells; [6]): > 10 µM
EC50 (NCI-H716 cells; [7]): > 10 µM
EC50 (HeLa cells; IC50 / EC50): > 10 µM
IC50 (DLD-1; [8]): 3.92 µM
IC50 (SW480; [9]): 5.17 µM
IC50 (HCT116; [10]): 3.47 µM
IC50 [3, 11]: 6.25 µM

CC(=O)N(O)CCCCCNC(=O)CCC(=O)N(O)CCCCCNC(=O)CCC(=O)N(O)CCCCCN [Deferoxamine]
IC50 [1, 13]: 4.53 µM
EC50 [2, 14]: > 10 µM
EC50 (INS-1E cells; [15]): > 10 µM
EC50 (NCI-H716 cells; [16]): > 10 µM
EC50 (HeLa cells; [17]): > 10 µM
IC50 (DLD-1; [18]): > 20 µM
IC50 (SW480; [19]): > 20 µM
IC50 (HCT116; [20]): 8.55 µM
IC50 [3, 21]: > 20 µM

Nc1nc(=O)n([C@@H]2O[C@H](CO)[C@@H](O)[C@@H]2F)cc1I [Fiacitabine]
IC50 [1, 4]: 3.47 µM
EC50 [2, 5]: > 10 µM
EC50 (INS-1E cells; [6]): > 10 µM
EC50 (NCI-H716 cells; [7]): > 10 µM
EC50 (HeLa cells; IC50 / EC50): > 10 µM
IC50 (DLD-1; [8]): > 20 µM
IC50 (SW480; [9]): > 20 µM
IC50 (HCT116; [10]): > 20 µM
IC50 [3, 11]: > 20 µM

CN1CC[C@H](c2c(O)cc(O)c3c(=O)cc(-c4ccccc4Cl)oc23)[C@H](O)C1 [Flavopiridol]
IC50 [1, 4]: 0.114 µM
EC50 [2, 5]: 0.191 µM
EC50 (INS-1E cells; [6]): > 10 µM
EC50 (NCI-H716 cells; [7]): > 10 µM
EC50 (HeLa cells; IC50 / EC50): > 10 µM
IC50 (DLD-1; [8]): 0.0684 µM
IC50 (SW480; [9]): 2.11 µM
IC50 (HCT116; [10]): 16.7 µM
IC50 [3, 12]: 0.297 µM

CO[C@@H]1[C@@H](OC)[C@H](C)[C@@](O)(CC(=O)O)O[C@H]1[C@H](C)[C@H]1O[C@@]2(CC[C@@](C)([C@H]3CC[C@@](C)([C@@H]4O[C@@H]([C@H]5O[C@](C)(O)[C@H](C)C[C@@H]5C)C[C@@H]4O[C@@H]4C[C@H](OC)[C@@H](OC)[C@H](C)O4)O3)O2)C[C@H](O)[C@H]1C [Maduramicin ammonium]
IC50 [1, 4]: 0.252 µM
EC50 [2, 5]: > 10 µM
EC50 (INS-1E cells; [6]): > 10 µM
EC50 (NCI-H716 cells; [7]): > 10 µM
EC50 (HeLa cells; IC50 / EC50): > 10 µM
IC50 (DLD-1; [8]): 1.08 µM
IC50 (SW480; [9]): 1.45 µM
IC50 (HCT116; [10]): 8.6 µM
IC50 [3, 11]: 1.16 µM

C[C@@H]1C[C@H]2[C@@H]3CCC4=CC(=O)C=C[C@]4(C)[C@@]3(Cl)[C@@H](O)C[C@]2(C)[C@@]1(OC(=O)c1ccco1)C(=O)CCl [Mometasone furoate]
IC50 [1, 13]: 4.99 µM
EC50 [2, 14]: > 10 µM
EC50 (INS-1E cells; [15]): > 10 µM
EC50 (NCI-H716 cells; [16]): > 10 µM
EC50 (HeLa cells; [17]): > 10 µM
IC50 (DLD-1; [18]): 8.42 µM
IC50 (SW480; [19]): 4.89 µM
IC50 (HCT116; [20]): 14.5 µM
IC50 [3, 21]: > 20 µM

CC(C)CC(=O)N[C@H](C(=O)N[C@H](C(=O)N[C@@H](CC(C)C)[C@@H](O)CC(=O)N[C@@H](C)C(=O)N[C@@H](CC(C)C)[C@@H](O)CC(=O)O)C(C)C)C(C)C [Pepstatin] (Isovaleryl-VV[Sta]A[Sta]-OH)
IC50 [1, 13]: 1.24 µM
EC50 [2, 14]: > 10 µM
EC50 (INS-1E cells; [15]): > 10 µM
EC50 (NCI-H716 cells; [16]): > 10 µM
EC50 (HeLa cells; [17]): > 10 µM
IC50 (DLD-1; [18]): > 20 µM
IC50 (SW480; [19]): > 20 µM
IC50 (HCT116; [20]): > 20 µM
IC50 [3, 21]: 17.7 µM

CC(C)OC(=O)OCOP(=O)(CO[C@H](C)Cn1cnc2c(N)ncnc21)OCOC(=O)OC(C)C [Tenofovir disoproxil fumarate]
IC50 [1, 4]: 3.84 µM
EC50 [2, 5]: > 10 µM
EC50 (INS-1E cells; [6]): > 10 µM
EC50 (NCI-H716 cells; [7]): > 10 µM
EC50 (HeLa cells; IC50 / EC50): > 10 µM
IC50 (DLD-1; [8]): 19.6 µM
IC50 (SW480; [9]): > 20 µM
IC50 (HCT116; [10]): > 20 µM
IC50 [3, 11]: > 20 µM

CCCCCCCCCCCCCCCC[N+](C)(C)CCN(Cc1ccc(OC)cc1)c1ncccn1 [Tonzonium bromide]
IC50 [1, 13]: 3.07 µM
EC50 [2, 14]: > 10 µM
EC50 (INS-1E cells; [15]): > 10 µM
EC50 (NCI-H716 cells; [16]): 17.8 µM
EC50 (HeLa cells; [17]): > 10 µM
IC50 (DLD-1; [18]): 4.05 µM
IC50 (SW480; [19]): 5.08 µM
IC50 (HCT116; [20]): 3.41 µM
IC50 [3, 21]: 5.31 µM

CN(C)/N=N/c1[nH]cnc1C(N)=O [dacarbazine]
IC50 [1, 13]: 4.59 µM
EC50 [2, 14]: > 10 µM
EC50 (INS-1E cells; [15]): > 10 µM
EC50 (NCI-H716 cells; [16]): > 10 µM
EC50 (HeLa cells; [17]): > 10 µM
IC50 (DLD-1; [18]): > 20 µM
IC50 (SW480; [19]): > 20 µM
IC50 (HCT116; [20]): > 20 µM
IC50 [3, 21]: > 20 µM

Cc1nc(Nc2ncc(C(=O)Nc3c(C)cccc3Cl)s2)cc(N2CCN(CCO)CC2)n1 [dasatinib, reference compound]
IC50 ([1]; Homo sapiens; read-out: Anti-Angio IC50): > 10 µM
EC50 ([2]; Mus musculus, C2C12; read-out: Wnt Pathway): 0.0067 µM
EC50 ([2]; Mus musculus, C2C12; read-out: Wnt pot. EC50): 0.007 µM
EC50 (INS-1E cells; [22]): > 10 µM
EC50 (NCI-H716 cells; [23]): > 10 µM
EC50 (HeLa cells; [17]): > 10 µM
IC50 (DLD-1; [24]): 3.5 µM
IC50 (DLD-1; [18]): 3.52 µM
IC50 (SW480; [25]): 7 µM
IC50 (SW480; [19]): 7.02 µM
IC50 (HCT116; [26]): 11.9 µM
IC50 (HCT116; [20]): 11.9 µM
IC50 [3, 27]: > 20 µM

Cc1ccc(S(=O)(=O)NC(=O)NN2CC3CCCC3C2)cc1 (stereo not drawn) [gliclazide, reference compound]
IC50 ([1]; Homo sapiens, Table 2; primary assay tube area; 20 = no response in concentration-response, 20.1 = inactive in single concentration testing; read-out: Anti-Angio IC50): > 10 µM
EC50 ([2]; Mus musculus, C2C12, Table 2; C2C12; […]; 20 / 20.1 coded; read-out: Wnt pot. EC50): > 10 µM
EC50 (INS-1E cells; [22]): 1.8 µM
EC50 (INS-1E cells; [15]): 1.83 µM
EC50 (NCI-H716 cells; [23]): > 10 µM
G2/M IC50 / EC50 (HeLa cells): 20 (values shown as 20 indicate that the compound was tested in concentration-response and showed no response at the highest concentration tested (e.g. IC50 > 20 μM))
EC50 (HeLa cells; [17]): > 10 µM
IC50 (DLD-1; [24]): > 20 µM
IC50 (SW480; [25]): > 20 µM
IC50 (HCT116; [26]): > 20 µM
IC50 [3, 27]: > 20 µM
